Measurements published in BindingDB's records for doi:10.3109/14756366.2011.639016 (Gazi University, 2013).

How the values were obtained:
Carbonic anhydrase 1 = Carbonic anhydrase 1 (Homo sapiens, UniProt P00915); assay: Esterase Activity Assay; details: pH 7.4
Method: (§1) The enzymatic reaction contained 1.4 mL 0.05 M Tris-SO4 buffer(pH 7.4), 1 mL 3 mM 4-nitrophenylacetate, 0.5 mL H2O and 0.1 mL enzyme solution (total volume, 3.0 mL). A reference measurement was obtained by preparing themixture without the enzyme solution. All measurements were made in triplicate.

Carbonic anhydrase 2 = Carbonic anhydrase 2 (Homo sapiens, UniProt P00918); assay: Esterase Activity Assay; details: pH 7.4
Method: as §1

Carbonic anhydrase 1, sequence (P00915 whole entry): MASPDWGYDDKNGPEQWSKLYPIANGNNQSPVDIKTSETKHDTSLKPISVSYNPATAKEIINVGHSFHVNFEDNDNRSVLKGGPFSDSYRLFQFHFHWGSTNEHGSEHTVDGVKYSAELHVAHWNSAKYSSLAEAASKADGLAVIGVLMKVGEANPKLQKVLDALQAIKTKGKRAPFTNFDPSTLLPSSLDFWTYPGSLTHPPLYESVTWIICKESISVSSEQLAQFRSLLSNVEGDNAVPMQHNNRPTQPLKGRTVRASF

In the case of `Cc1ccc(-c2c(C#N)c(N)nc3c2CCSC3)s1` [CA inhibitor, 5i], the IC50 (Carbonic anhydrase 1) is reported as 55 µM and the Ki (Carbonic anhydrase 1) is reported as 38.4 µM.
For `Cc1ccc(-c2c(C#N)c(N)nc3c2CCCCC3)o1` [CA inhibitor, 5f], the IC50 (Carbonic anhydrase 1) was 53 µM and the Ki (Carbonic anhydrase 1) was 58.5 µM.
For `Cc1ccc(-c2c(C#N)c(N)nc3c2CCSC3)o1` [CA inhibitor, 5l], the IC50 (Carbonic anhydrase 1) was 53 µM and the Ki (Carbonic anhydrase 1) was 50.3 µM.
Compound `Cc1ccc(-c2c(C#N)c(N)nc3c2CCCCC3)s1` [CA inhibitor, 5c] has an IC50 (Carbonic anhydrase 2) of 77 µM, a Ki (Carbonic anhydrase 2) of 73 µM and an IC50 (Carbonic anhydrase 1) of 40 µM. The Ki (Carbonic anhydrase 1) was 30.6 µM.
For `Cc1ccc(-c2c(C#N)c(N)nc3c2CCCC3)s1` [2-azanyl-4-(5-methylthiophen-2-yl)-5,6,7,8-tetrahydroquinoline-3-carbonitrile], the IC50 (Carbonic anhydrase 2) was 99 µM, the Ki (Carbonic anhydrase 2) was 182 µM and the IC50 (Carbonic anhydrase 1) was 34 µM. It also gave a Ki (Carbonic anhydrase 1) of 31 µM.
For `Cc1ccc(-c2c(C#N)c(N)nc3c2CCCC3)o1` [CA inhibitor, 5e], the IC50 (Carbonic anhydrase 1) was 48 µM and the Ki (Carbonic anhydrase 1) was 89 µM.
`Cc1ccc(-c2c(C#N)c(N)nc3c2CCC3)o1` [CA inhibitor, 5d] gave an IC50 (Carbonic anhydrase 2) of 56 µM, a Ki (Carbonic anhydrase 2) of 41 µM and an IC50 (Carbonic anhydrase 1) of 33 µM. For the same compound, the Ki (Carbonic anhydrase 1) was 23.8 µM.
